{"source": "ChEMBL document CHEMBL1130652", "about": "“Design, synthesis and biological activity of a pyrrolo [2,1-c][1,4]benzodiazepine (PBD)-distamycin hybrid” (Bioorg Med Chem Lett, 1998)", "key": {"Nucleic Acid": {"molecular_target": "Nucleic Acid", "experiment": "Inhibition of human estrogen receptor(ER) polymerase-chain reaction product", "assay_type": "functional"}, "K562": {"system": "K562", "experiment": "In vitro effect on human leukemia K562 cell proliferation", "assay_type": "functional, cell-based"}}, "data": [{"smiles": "COC(=O)CCOc1cc2c(cc1OC)C(=O)N1CCC[C@H]1C=N2.Cn1cc(NC(=O)c2cc(NC(=O)c3cc(NC=O)cn3C)cn2C)cc1C(=O)NCCC(=N)N", "values": [{"measurement": "IC50", "setting": "Nucleic Acid", "value": 50, "unit": "µM"}, {"measurement": "IC50", "setting": "K562", "value": 1, "unit": "µM"}]}, {"smiles": "COc1cc2c(cc1OCCC(=O)Nc1cc(C(=O)Nc3cc(C(=O)Nc4cc(C(=O)NCCC(=N)N)n(C)c4)n(C)c3)n(C)c1)N=C[C@@H]1CCCN1C2=O", "values": [{"measurement": "IC50", "setting": "Nucleic Acid", "value": 8, "unit": "µM"}, {"measurement": "IC50", "setting": "K562", "value": 0.2, "unit": "µM"}]}, {"smiles": "COC(=O)CCOc1cc2c(cc1OC)C(=O)N1CCC[C@H]1C=N2", "values": [{"measurement": "IC50", "setting": "Nucleic Acid", "value": "> 300", "unit": "µM"}, {"measurement": "IC50", "setting": "K562", "value": 1, "unit": "µM"}]}, {"smiles": "Cn1cc(NC(=O)c2cc(NC(=O)c3cc(NC=O)cn3C)cn2C)cc1C(=O)NCCC(=N)N", "note": "[STALLIMYCIN]", "values": [{"measurement": "IC50", "setting": "Nucleic Acid", "value": 50, "unit": "µM"}, {"measurement": "IC50", "setting": "K562", "value": 5, "unit": "µM"}]}]}
